EC50 data for 26 compounds are collected here from patent publication US9493396B2, “Substituted naphthalene compounds as calcium sensing receptor modulators” (LUPIN ATLANTIS HOLDINGS SA, priority 2013, dated 2016).

Counter-ions that a name gives are not always drawn. A value given as a limit tells only on which side of the number the result lay.

The experiment has as its target T1, Calcium sensing receptor (hCaSR) (Homo sapiens, UniProt P41180).
T1 construct: expressed in transfected cells; host or cells: HEK293 (stably transfected)
T1 sequence (P41180 20-1078): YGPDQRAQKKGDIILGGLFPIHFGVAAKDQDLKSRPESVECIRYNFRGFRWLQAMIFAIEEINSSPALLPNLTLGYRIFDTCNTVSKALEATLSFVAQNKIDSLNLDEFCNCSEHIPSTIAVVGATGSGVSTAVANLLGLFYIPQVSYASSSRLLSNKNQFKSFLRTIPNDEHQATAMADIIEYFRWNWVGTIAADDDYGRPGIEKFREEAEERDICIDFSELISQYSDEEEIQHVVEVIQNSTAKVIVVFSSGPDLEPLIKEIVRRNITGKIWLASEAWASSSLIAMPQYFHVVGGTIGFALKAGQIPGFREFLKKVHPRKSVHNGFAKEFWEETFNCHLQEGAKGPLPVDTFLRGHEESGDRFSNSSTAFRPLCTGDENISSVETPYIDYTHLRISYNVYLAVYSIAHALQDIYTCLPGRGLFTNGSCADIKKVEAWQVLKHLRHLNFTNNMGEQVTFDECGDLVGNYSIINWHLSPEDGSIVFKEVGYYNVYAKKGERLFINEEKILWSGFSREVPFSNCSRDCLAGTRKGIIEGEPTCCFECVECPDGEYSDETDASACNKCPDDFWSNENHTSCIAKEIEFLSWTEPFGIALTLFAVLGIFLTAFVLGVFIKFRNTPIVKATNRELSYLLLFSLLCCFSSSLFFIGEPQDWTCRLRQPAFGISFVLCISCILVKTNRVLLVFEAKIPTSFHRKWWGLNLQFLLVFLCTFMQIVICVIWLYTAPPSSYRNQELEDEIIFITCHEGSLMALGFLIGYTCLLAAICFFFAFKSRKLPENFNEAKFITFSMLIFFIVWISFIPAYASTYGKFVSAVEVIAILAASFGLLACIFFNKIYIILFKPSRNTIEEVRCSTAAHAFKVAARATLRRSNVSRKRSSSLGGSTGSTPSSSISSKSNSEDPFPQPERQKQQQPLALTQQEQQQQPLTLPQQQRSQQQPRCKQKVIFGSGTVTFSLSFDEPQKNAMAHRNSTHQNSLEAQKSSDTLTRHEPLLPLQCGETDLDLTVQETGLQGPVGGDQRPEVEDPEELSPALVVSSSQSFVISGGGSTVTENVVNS
Put plainly: In-vitro assay of calcimimetics through modulation of calcium sensing receptor (intracellular calcium increase, FLIPR). The conditions noted are these: stably transfected HEK293 cells expressing hCaSR; Fluo4NW dye; 0.3 mM CaCl2; 8-point assay; read-out: EC50 in range. Type of experiment: cell-based. On the procedure:
In-Vitro Assay Method of Calcimimetics Through Modulation of Calcium Sensing Receptor (CaSR): The ability of the compounds to modulate Calcium sensing receptor is determined by measuring an increase in intracellular calcium [Ca^2+]i. Stably transfected HEK293 cells expressing hCaSR_pTriEx-3 hygro vector are developed. Cells are grown overnight on a 96-well plate to 80% confluency in Ham's F12 containing 20% FBS at 37° C., 5% CO2. Subsequently, cells are washed extensively with 20 mM HEPES buffer containing 126 mM […], 1 mM MgCl2 and 4 mM KCl to remove serum components that might interfere with the assay. Cells are loaded with calcium sensing Fluo4NW dye in HEPES base buffer containing 0.1% BSA and 1 mg/ml glucose for 30 minutes to measure changes in intracellular calcium. The activities of the compounds are measured in FLIPR using 0.3 mM CaCl2 in 20 mM HEPES base buffer. The effectiveness of the compound to modulate receptor activity is determined by calculating the EC50 responses for that compound in an 8-point assay and plotted using GraphPad Prism 5.
(Calcium assays in cells follow changes in intracellular calcium, usually with a dye or a luminescent sensor.)
Turning to `COc1cc([C@@H](C)NCc2cc(-c3ccc(F)c(C(=O)O)c3)c3ccccc3c2)ccc1F` [Example 96, (R)-2-Fluoro-5-(3-(((1-(4-fluoro-3-methoxyphenyl)ethyl)amino)methyl)naphthalen-1-yl)benzoic acid hydrochloride], the EC50 fell in the range of 50 to 400 nM. Then `COc1cccc([C@@H](C)NCc2cc(-c3ccc(F)c(C(=O)O)c3)c3ccccc3c2)c1` [Example 97, (R)-2-Fluoro-5-(3-(((1-(3-methoxyphenyl)ethyl)amino)methyl)naphthalen-1-yl)benzoic acid hydrochloride], with less than 20 nM; and `CCOc1cccc([C@@H](C)NCc2cc(-c3ccc(F)c(C(=O)O)c3)c3ccccc3c2)c1` [Example 98, hydrochloride], with less than 20 nM.

Turning to `COc1cccc([C@@H](C)NCc2cc(-c3ccc(Cl)c(C(=O)O)c3)c3ccccc3c2)c1` [Example 99, (R)-2-Chloro-5-(3-(((1-(3-methoxyphenyl)ethyl)amino)methyl)naphthalen-1-yl)benzoic acid hydrochloride], the EC50 is 20 to 50 nM. The same measure for `CCOc1cccc([C@@H](C)NCc2cc(-c3ccc(Cl)c(C(=O)O)c3)c3ccccc3c2)c1` [Example 100, (R)-2-Chloro-5-(3-(((1-(3-ethoxyphenyl)ethyl)amino)methyl)naphthalen-1-yl)benzoic acid hydrochloride]: 20 to 50 nM; for `COc1cccc([C@@H](C)NCc2cc(-c3cccc(C(=O)O)c3C)c3ccccc3c2)c1` [Example 101, (R)-3-(3-(((1-(3-Methoxyphenyl)ethyl)amino)methyl)naphthalen-1-yl)-2-methylbenzoic acid hydrochloride]: 50 to 400 nM; for `COc1cccc([C@@H](C)NCc2cc(-c3cccc(C(=O)O)c3F)c3ccccc3c2)c1` [Example 103, (R)-2-Fluoro-3-(3-(((1-(3-methoxyphenyl)ethyl)amino)methyl)naphthalen-1-yl)benzoic acid hydrochloride]: 20 to 50 nM. For the compound `COc1cccc([C@@H](C)NCc2cc(-c3ccc(OC)c(C(=O)O)c3)c3ccccc3c2)c1` [Example 104, (R)-2-Methoxy-5-(3-(((1-(3-methoxyphenyl)ethyl)amino)methyl)naphthalen-1-yl)benzoic acid hydrochloride], the EC50 is 50 to 400 nM. The same measure for `COc1cccc([C@@H](C)NCc2cc(-c3ccc(C(C)C)c(C(=O)O)c3)c3ccccc3c2)c1` [Example 105, (R)-2-Isopropyl-5-(3-(((1-(3-methoxyphenyl)ethyl)amino)methyl)naphthalen-1-yl)benzoic acid hydrochloride]: 50 to 400 nM; for `C[C@@H](NCc1cc(-c2ccc(C(=O)O)cc2)c2ccccc2c1)c1cccc2ccccc12` [Example 106, (R)-4-(3-(((1-(Naphthalen-1-yl)ethyl)amino)methyl)naphthalen-1-yl)benzoic acid hydrochloride]: 50 to 400 nM; for `COc1cc([C@@H](C)NCc2cc(-c3ccc(C(=O)O)cc3)c3ccccc3c2)ccc1F` [Example 107, (R)-4-(3-(((1-(4-Fluoro-3-methoxyphenyl)ethyl)amino)methyl)naphthalen-1-yl)benzoic acid hydrochloride]: 20 to 50 nM. Then `COc1cccc([C@@H](C)NCc2cc(-c3cccc(C(=O)O)c3)c3ccccc3c2)c1` [Example 108, (R)-3-(3-(((1-(3-Methoxyphenyl)ethyl)amino)methyl)naphthalen-1-yl)benzoic acid hydrochloride], with less than 20 nM; and `COc1cccc([C@@H](C)NCc2cc(-c3ccc(C)c(C(=O)O)c3C)c3ccccc3c2)c1` [Example 109, (R)-3-(3-(((1-(3-Methoxyphenyl)ethyl)amino)methyl)naphthalen-1-yl)-2,6-dimethylbenzoic acid hydrochloride], with 50 to 400 nM.

As for `COc1cccc([C@@H](C)NCc2cc(-c3ccc(F)c(CCC(=O)O)c3)c3ccccc3c2)c1` [Example 110, hydrochloride], the EC50 was less than 20 nM. Consider `COc1cccc([C@@H](C)NCc2cc(-c3ccc(C(C)(C)C(=O)O)cc3)c3ccccc3c2)c1` [Example 111, (R)-2-(4-(3-(((1-(3-Methoxyphenyl)ethyl)amino)methyl)naphthalen-1-yl)phenyl)-2-methylpropanoic acid hydrochloride], for which the EC50 was 50 to 400 nM. Then `COc1cccc([C@@H](C)NCc2cc(-c3cccc(C(C)(C)C(=O)O)c3)c3ccccc3c2)c1` [Example 112, (R)-2-(3-(3-(((1-(3-Methoxyphenyl)ethyl)amino)methyl)naphthalen-1-yl)phenyl)-2-methylpropanoic acid hydrochloride], with 50 to 400 nM. The same measure for `COCCOc1cccc([C@@H](C)NCc2cc(-c3ccc(F)c(C(=O)O)c3)c3ccccc3c2)c1` [Example 113, (R)-2-Fluoro-5-(3-(((1-(3-(2-methoxyethoxy)phenyl)ethyl)amino)methyl)naphthalen-1-yl) benzoic acid hydrochloride]: 50 to 400 nM.

With `COc1cc([C@@H](C)NC(C)c2cc(-c3ccc(C)c(C(=O)O)c3)c3ccccc3c2)ccc1F` (stereo partly drawn) [Example 115, 5-(3-(1-(((R)-1-(4-Fluoro-3-methoxyphenyl)ethyl)amino)ethyl)naphthalen-1-yl)-2-methylbenzoic acid hydrochloride], the EC50 is 50 to 400 nM.

For `COc1cccc([C@@H](C)NC(C)c2cc(-c3cccc(C(=O)O)c3C)c3ccccc3c2)c1` (stereo partly drawn) [Example 116, 3-(3-(1-(((R)-1-(3-Methoxyphenyl)ethyl)amino)ethyl)naphthalen-1-yl)-2-methylbenzoic acid hydrochloride], the half-maximal effective concentration (EC50) was 20 to 50 nM. With `Cc1ccc(-c2cc(C(C)N[C@H](C)c3cccc(Cl)c3)cc3ccccc23)cc1C(=O)O` (stereo partly drawn) [Example 117, 5-(3-(1-(((R)-1-(3-Chlorophenyl)ethyl)amino)ethyl)naphthalen-1-yl)-2-methylbenzoic acid hydrochloride], the EC50 lay within 50 to 400 nM. Regarding `COc1cccc([C@@H](C)NC(C)c2cc(-c3cc(F)cc(C(=O)O)c3)c3ccccc3c2)c1` (stereo partly drawn) [Example 118, 3-Fluoro-5-(3-(1-(((R)-1-(3-methoxyphenyl)ethyl)amino)ethyl)naphthalen-1-yl)benzoic acid hydrochloride], the EC50 is less than 20 nM. The same measure for `COc1cccc([C@@H](C)NC(C)c2cc(-c3ccc(C(=O)O)cc3)c3ccccc3c2)c1` (stereo partly drawn) [Example 119, 4-(3-(1-(((R)-1-(3-Methoxyphenyl)ethyl)amino)ethyl)naphthalen-1-yl)benzoic acid hydrochloride]: 50 to 400 nM. The same measure for `COc1cccc([C@@H](C)NC(C)c2cc(-c3ccc(C(=O)O)cc3F)c3ccccc3c2)c1` (stereo partly drawn) [Example 120, 3-Fluoro-4-(3-(1-(((R)-1-(3-methoxyphenyl)ethyl)amino)ethyl)naphthalen-1-yl)benzoic acid hydrochloride]: less than 20 nM. The same measure for `COc1cccc([C@@H](C)NC(C)c2cc(-c3ccc(C(=O)O)c(Cl)c3)c3ccccc3c2)c1` (stereo partly drawn) [Example 121, 2-Chloro-4-(3-(1-(((R)-1-(3-methoxyphenyl)ethyl)amino)ethyl)naphthalen-1-yl)benzoic acid hydrochloride]: 50 to 400 nM. Take `COc1cccc([C@@H](C)NC(C)c2cc(-c3ccc(F)c(CCC(=O)O)c3)c3ccccc3c2)c1` (stereo partly drawn) [Example 122, 3-(2-Fluoro-5-(3-(1-(((R)-1-(3-methoxyphenyl)ethyl)amino)ethyl)naphthalen-1-yl)phenyl)propanoic acid hydrochloride]: the EC50 is less than 20 nM. On to `COc1cccc([C@@H](C)NC(C)c2cc(-c3ccc(F)c(C(=O)O)c3)c3ccccc3c2)c1` (stereo partly drawn) [Example 123, 2-Fluoro-5-(3-(1-(((R)-1-(3-methoxyphenyl)ethyl)amino)ethyl)naphthalen-1-yl)benzoic acid hydrochloride], for which the EC50 was less than 20 nM.

By EC50 is commonly meant the concentration giving half of the maximal effect.
